Reference: patent US20080275075A1, “Medicine Comprising a Combination of an Acetylcholinesterase Inhibitor and a 5-Substituted-3-Oxadiazolyl-1,6-Naphthyridin-2(1H)-One Derivative” (priority 2004, published 2008)
Counter-ions that a name gives are not always drawn.

Tests used:
[1] = system: spatial memory disorder induced by scopolamine; assay: Ameliorating effect on spatial memory disorder induced by scopolamine (Y-maze alternation behavior); format: in vivo, ddY male mice; settings: for Single administration [MED (mg/kg)]: minimum effective dose, 1 h before scopolamine 0.6 mg/kg s.c.; for Single administration [MED (mg/kg)] / # [MED (mg/kg)] Combined administration with donepezil: oral; for dose at which spatial memory disorder induced by scopolamine was significantly ameliorated: single oral administration; for # [MED (mg/kg)] Combined administration with donepezil: minimum effective dose of test compound, combined with donepezil 1 mg/kg
Method: (§1) The pharmacological experiment to investigate ameliorating effect on spatial memory disorder induced by scopolamine was carried out by systemic administration to animals according to the following method of Itoh, T. et al. In addition, the pharmacological experiment to investigate ameliorating effect on spatial memory disorder induced by MK-801 was carried out by systemic administration to animals according to the following method of Maurice, T. et al.
(§2) The spatial memory test using Y-maze apparatus which was selected for the pharmacological experiment is a test to utilize the behavioral property of animals to enter into a new arm, avoiding the arm that they entered into just before (alternation behavior). This method is often used in order to study spatial working memory.
This experiment was carried out according to the method of Itoh, J., et al. [Eur. J. Pharmacol., 236, pp. 341-345 (1993)].
Ten to twelve ddY male mice weighing 28-34 g were used per one group in the experiment. A solution of scopolamine in physiological saline (concentration: 0.06 mg/ml) was subcutaneously administered to mice in a volume of 0.1 ml/10 g of body weight, i.e., 0.6 mg/kg. […] However, the vehicle control group was injected with physiological saline instead of scopolamine. Thirty minutes after the administration of scopolamine, the mice were placed at the end of the arm A of the Y-maze apparatus which was composed of three black acrylic trapezoid arms (bottom width: 3 cm, height of side wall: 12 cm, width of opened ceiling: 10 cm, length: 40 cm), wherein said three arms were connected at the one end of each arm to form Y-shape and another ends were closed, and the three arms were differentiated by the names as A, B and C respectively, and allowed to search freely the maze for 8 minutes. When the mouse was checked to enter into an arm at the length of not less than 10 cm from the entrance of the arm, the name of the arm (A, B or C) was recorded. For the final data gotten, the ratio of the number of the alternation behavior to that of the entries (obtained by subtracting 2 from the total number of arm entries) was estimated as the rate of alternation behavior.
In statistical analysis, the rate of alternation behavior in the amnesia control group was compared with that in the vehicle control group by the Wilcoxon rank sum test and it was checked if a significant amnesia was induced in the amnesia control group. Next, the efficacy of the test compounds in single use or in combination use of the test compounds with donepezil was evaluated in comparison between the amnesia control group and the single-administration groups using each one of the test compound A, the test compound B or donepezil; or in comparison between the amnesia control group and the combination groups of the test compound A or B and donepezil, by the nonparametric Dunnett multiple comparison test. The statistical calculation was carried out with SAS® System (Release 8.02, SAS Institute Inc.) and Preclinical Package Version 5.0 (SAS Institute Japan Ltd.).

[2] = system: spatial memory disorder induced by MK-801; assay: Ameliorating effect on spatial memory disorder induced by MK-801 (Y-maze alternation behavior); format: in vivo, ddY male mice; settings: for [MED (mg/kg)]: minimum effective dose, oral, 1 h before MK-801 0.1 mg/kg s.c., single administration
Method: as §1, §2
This experiment was carried out according to the method of Maurice, T., et al. [Brain Res., 647, pp. 44-56 (1994)].
Ten to twelve ddY male mice weighing 26-36 g were used per one group in the experiment. A solution of MK-801 in physiological saline (concentration: 0.01 mg/ml) was subcutaneously administered to mice in a volume of 0.1 ml/10 g of body weight, i.e., 0.1 mg/kg. One hour before MK-801 administration, the groups of mice to which each test compound should be singly administered were orally treated with test compound A, test compound B or donepezil suspended in 0.5% tragacanth solution in a volume of 0.1 ml/10 g of body weight; and the animals in the amnesia control group and the vehicle control group orally received a 0.5% tragacanth solution in a volume of 0.1 ml/10 g of body weight. However, the vehicle control group was injected with physiological saline instead of MK-801. Twenty minutes after administration of MK-801, the mice were placed at the end of the arm A of the Y-maze apparatus which was composed of three black acrylic trapezoid arms (bottom width: 3 cm, height of side wall: 12 cm, width of opened ceiling: 10 cm, length: 40 cm), wherein said three arms were connected at the one end of each arm to form Y-shape and another ends were closed, and the three arms were differentiated by the names as A, B and C respectively, and allowed to search freely the maze for 8 minutes. When the mouse was checked to enter into an arm at the length of not less than 10 cm from the entrance of the arm, the name of the arm (A, B or C) was recorded. For the final data gotten, the ratio of the number of the alternation behavior to that of the entries (obtained by subtracting 2 from the total number of arm entries) was estimated as the rate of alternation behavior.
In statistical analysis, the rate of alternation behavior in the amnesia control group was compared with that in the vehicle control group by the Wilcoxon rank sum test and it was checked if a significant amnesia was induced in the amnesia control group. Next, the efficacy of the test compounds was evaluated in comparison between the amnesia control group and each group of test compound A, test compound B or donepezil by the nonparametric Dunnett multiple comparison test. The statistical calculation was carried out with SAS® System (Release 8.02, SAS Institute Inc.) and Preclinical Package Version 5.0 (SAS Institute Japan Ltd.).

Row | Structure (SMILES) | rate of alternation behavior ([1]; amnesia control group, scopolamine 0.6 mg/kg s.c., vehicle control group 63-70%) | rate of alternation behavior ([2]; amnesia control group, MK-801 0.1 mg/kg s.c., vehicle control group 65-73%) | [MED (mg/kg)] [2] [mg/kg] | amelioration of spatial memory disorder induced by MK-801 ([2]; single oral administration) | amelioration of spatial memory disorder induced by scopolamine ([1]; 1 mg/kg, single administration) | Single administration [MED (mg/kg)] ([1]; single administration) [mg/kg] | dose at which spatial memory disorder induced by scopolamine was significantly ameliorated [1] [mg/kg] | dose at which spatial memory disorder induced by MK-801 was significantly ameliorated ([2]; single oral administration) [mg/kg] | # [MED (mg/kg)] Combined administration with donepezil ([1]; scopolamine 0.6 mg/kg s.c.) [mg/kg]
1 | CN1[C@@H]2C[C@@H](OC(=O)[C@H](CO)c3ccccc3)C[C@H]1[C@@H]1O[C@@H]12 [scopolamine, Scopolamine hydrobromide, reference compound] | 39-46% | – | – | – | – | – | – | – | –
2 | C[C@]12N[C@H](Cc3ccccc31)c1ccccc12 [MK-801, dizocilipine maleate, reference compound] | – | 45-47% | – | – | – | – | – | – | –
3 | COc1cc2c(cc1OC)C(=O)C(CC1CCN(Cc3ccccc3)CC1)C2 (centres unmarked) [Donepezil, Donepezil hydrochloride, reference compound] | – | – | >15 | not ameliorated | not ameliorated | 10 | ≥ 10 | – | –
4 | COc1cccc(-c2nccc3[nH]c(=O)c(-c4noc(C)n4)cc23)c1 [Test compound A, 3-(5-methyl-1,2,4-oxadiazol-3-yl)-5-(3-methoxyphenyl)-1,6-naphthyridin-2(1H)-one] | – | – | 0.3 | – | – | 0.3 | ≥ 0.3 | ≥ 0.3 | 0.03
5 | O=c1[nH]c2ccnc(-c3ccsc3)c2cc1-c1nc(C2CC2)no1 [Test compound B, 3-(3-cyclopropyl-1,2,4-oxadiazol-5-yl)-5-(3-thienyl)-1,6-naphthyridin-2(1H)-one] | – | – | 0.1 | – | – | 0.1 | ≥ 0.1 | ≥ 0.1 | 0.01
